Where two headings read alike, the source gives them in different places.
Key:
LX1 = conditions: LX1, histologically unclassified lung tumour; cited from earlier work
[1] = test system: xenografted tumours of the colon, head, breast, rectum, lung and stomach; conditions: in vivo; cited from earlier work
LoVo = assay: Sensitivity of cell lines to Cisplatin and Ti compounds (LoVo); assay type: cell-based; conditions: for relative sensitivity of cell lines: LoVo (reference line = 1)
A2780 = assay: Sensitivity of cell lines to Cisplatin and Ti compounds (A2780); assay type: cell-based; conditions: for relative sensitivity of cell lines: A2780, relative to LoVo; for DIFFERENTIAL: IC50 of 2 relative to Cisplatin
MCF-7 = assay: Sensitivity of cell lines to Cisplatin and Ti compounds (MCF-7); assay type: cell-based; conditions: for relative sensitivity of cell lines: MCF-7, relative to LoVo
LS 174T = assay: Sensitivity of cell lines to Cisplatin and Ti compounds (LS 174T); assay type: cell-based; conditions: for relative sensitivity of cell lines: LS-174T, relative to LoVo
A2780-cis = assay: Anti-proliferative effect on cisplatin-resistant A2780-cis; assay type: cell-based; conditions: for relative sensitivity of A2780 and A2780cis cell lines: relative to A2780 144 hr; for relative sensitivity of cell lines: relative to LoVo; for DIFFERENTIAL: IC50 of 2 relative to Cisplatin
Description: In order to determine whether these types of complexes overcome platinum resistance in vitro, the anti-proliferative effects of 2 on cisplatin-resistant […] were examined (see Table 3).

[2] = test system: certain cancer cell lines; conditions: compared to Cp2TiCl2
[3] = A2780 (24 hour), read-out: IC50
[4] = A2780, exposure time 24 hr, relative to A2780 144 hr
[5] = A2780, exposure time 144 hr (reference = 1)
[6] = A2780-cis (24 hour), read-out: IC50

Molecule | anti-tumour activity against LX1 (LX1) | IC50 (LoVo; LoVo) [µM] | relative sensitivity of cell lines (LoVo) | IC50 (A2780; [3]) [µM] | relative sensitivity of A2780 and A2780cis cell lines (A2780; [4]) | relative sensitivity of A2780 and A2780cis cell lines (A2780; [5]) | relative sensitivity of cell lines (A2780) | IC50 (A2780; A2780, read-out: IC50) [µM] | relative sensitivity of cell lines (MCF-7) | IC50 (LS 174T; LS 174T) [µM] | relative sensitivity of cell lines (LS 174T) | IC50 (A2780-cis; [6]) [µM] | IC50 (A2780-cis; A2780-cis, read-out: IC50) [µM] | relative sensitivity of A2780 and A2780cis cell lines (A2780-cis; A2780cis, exposure time 24 hr) | relative sensitivity of A2780 and A2780cis cell lines (A2780-cis; A2780cis, exposure time 144 hr) | relative sensitivity of cell lines (A2780-cis; A2780cis) | other results
[Cl-].[Cl-].[V+4].c1cc[cH-]c1.c1cc[cH-]c1 [Cp2VCl2, vanadocene(bis-cyclopentadienyl vanadium)dichloride] | significant activity | – | – | – | – | – | – | – | – | – | – | – | – | – | – | – | –
C1=C[CH]([Ti+2][CH]2C=CC=C2)C=C1.[Cl-].[Cl-].[Ti+2].c1cc[cH-]c1.c1cc[cH-]c1 [Cp2TiCl2, titanocene (bis-cyclopentadienyl titanium)dichloride] | no significant anti-tumour activity | – | – | – | – | – | – | – | – | – | – | – | – | – | – | – | sensitivity of xenografted tumours [1]: significantly sensitive
N.N.[Cl][Pt][Cl] [Cisplatin, cisplatin, reference compound] | – | 0.37 | 1 | 1 | 1.22 | 1 | 2.2 | 0.82 | 24.3 | 0.5 | 1.35 | 5.4 | 2.1 | 6.59 | 2.56 | 5.7 | resistance relative to 2 (times more resistant) (A2780-cis; cisplatin-resistant A2780, after 144 hours): 3 times
[Cp(CH2)2NH(CH2)5]2TiCl2.2HCl [compound 2] | – | 62 | 1 | 168 | 5.42 | 1 | 0.5 | 31 | 1 | 36 | 0.58 | 154 | 28 | 4.97 | 0.90 | 0.45 | DIFFERENTIAL (LoVo; LoVo, IC50 of 2 relative to Cisplatin): 167.6 µM; potency relative to Cp2TiCl2 (times more potent) [2]: around 10 times; DIFFERENTIAL (A2780; A2780 (24 hour)): 168 µM; IC50 (A2780; A2780, 7 days, read-out: IC50 (7 days)): 99.1 µM; DIFFERENTIAL (A2780; A2780): 37.8 µM; IC50 (MCF-7; MCF-7): 62 µM; DIFFERENTIAL (MCF-7; MCF-7, IC50 of 2 relative to Cisplatin): 6.9 µM; DIFFERENTIAL (LS 174T; LS 174T, IC50 of 2 relative to Cisplatin): 72 µM; DIFFERENTIAL (A2780-cis; A2780-cis (24 hour)): 28.5 µM; DIFFERENTIAL (A2780-cis; A2780-cis): 13.3 µM; IC50 (A2780-cis; A2780cis, 7 days, read-out: IC50 (7 days)): 4.3 µM

Source: patent US20060106005A1, “Funtionalised metallocenes as anticancer drugs” (priority 2003, published 2006)
